The values below come from US11878965B2, “Inhibitors of peptidylarginine deiminases” (Gilead Sciences, Inc., priority 2020, dated 2024).

This experiment deals with human PAD4 (Homo sapiens (Human), UniProt Q9UM07). Nature of the experiment: In Vitro PAD4 BAEE Biochemical Assay. Conditions: geometric mean of multiple experiments. In a few lines:
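Deimination of BAEE substrate (3 mM) measured as ammonia via o-phthalaldehyde–DTT isoindole fluorescence, 405/535 nm. Tag-free bacterially expressed human PAD4 at 5 nM with 2 mM calcium chloride, pH 7.6 MOPS buffer, 30 min compound preincubation then 2 h reaction, both at 25 °C.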

Setting [1] is: human PAD4, BAEE substrate, 5 nM PAD4, 2 mM calcium chloride, 3 mM BAEE.
[2] abbreviates: recombinant PAD4 5 nM, 2 mM calcium chloride, 3 mM BAEE substrate.

human PAD4, sequence (Q9UM07 2-663): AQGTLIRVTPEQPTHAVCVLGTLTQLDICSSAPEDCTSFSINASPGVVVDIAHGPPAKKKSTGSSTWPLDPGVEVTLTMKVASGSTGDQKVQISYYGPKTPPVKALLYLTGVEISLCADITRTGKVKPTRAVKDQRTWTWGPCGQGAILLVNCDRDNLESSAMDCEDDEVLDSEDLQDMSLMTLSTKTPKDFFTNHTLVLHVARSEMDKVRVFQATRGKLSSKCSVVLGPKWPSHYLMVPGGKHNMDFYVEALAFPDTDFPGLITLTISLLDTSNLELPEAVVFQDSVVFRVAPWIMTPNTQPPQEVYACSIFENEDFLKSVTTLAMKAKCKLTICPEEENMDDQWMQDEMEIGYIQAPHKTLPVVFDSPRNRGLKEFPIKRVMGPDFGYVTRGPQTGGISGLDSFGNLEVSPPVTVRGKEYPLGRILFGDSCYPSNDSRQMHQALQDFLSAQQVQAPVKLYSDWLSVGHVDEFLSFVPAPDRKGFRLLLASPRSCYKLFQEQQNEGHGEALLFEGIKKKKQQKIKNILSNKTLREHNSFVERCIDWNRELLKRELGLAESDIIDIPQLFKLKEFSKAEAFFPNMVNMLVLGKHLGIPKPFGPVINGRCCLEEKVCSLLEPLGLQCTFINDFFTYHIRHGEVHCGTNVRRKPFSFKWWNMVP

Broadly, the IC50 is the concentration needed to halve the response being measured. For `COc1cc(C(=O)N2C[C@H](N)CC[C@@H]2C)cc2nc(-c3cc4ccc(-c5c(C)ccnc5-c5sc(C)nc5C)nc4n3CC3CC3)n(C)c12` [Example 269, ((2S,5R)-5-amino-2-methylpiperidin-1-yl)(2-(1-(cyclopropylmethyl)-6-(2-(2,4-dimethylthiazol-5-yl)-4-methylpyridin-3-yl)-1H-pyrrolo[2,3-b]pyridin-2-yl)-7-methoxy-1-methyl-1H-benzo[d]imidazol-5-yl)methanone], the IC50 under setting [1] was found to be 324 nM.

Turning to `COc1cc(C(=O)N2CCCC3(CCCN3)C2)cc2nc(-c3cc4ccc(N(C(F)F)S(C)(=O)=O)nc4n3CC3CC3)n(C)c12` (stereo not drawn) [Example 74, N-(1-(cyclopropylmethyl)-2-(7-methoxy-1-methyl-5-(1,7-diazaspiro[4.5]decane-7-carbonyl)-1H-benzo[d]imidazol-2-yl)-1H-pyrrolo[2,3-b]pyridin-6-yl)-N-(difluoromethyl) methanesulfonamide], the IC50 under setting [1] came out at 50000 nM.

For the compound `COc1cc(C(=O)N2CCC[C@@H](N)C2)cc2nc(-c3cc4ccc(N5[C@@H](C)CCCS5(=O)=O)nc4n3CC3CC3)n(C)c12` [Example 105, ((R)-3-aminopiperidin-1-yl)(2-(1-(cyclopropylmethyl)-6-((S)-3-methyl-1,1-dioxido-1,2-thiazinan-2-yl)-1H-pyrrolo[2,3-b]pyridin-2-yl)-7-methoxy-1-methyl-1H-benzo[d]imidazol-5-yl) methanone], the half-inhibitory concentration (IC50) under setting [1] amounted to 29.6 nM.

For `COc1cc(C(=O)N2C[C@H](N)CCN2C)cc2nc(-c3cc4ccc([C@@H](C)NC(=O)c5c(F)cccc5F)nc4n3CC3CC3)n(C)c12` [Example 210, N-((R)-1-(2-(5-((R)-5-amino-2-methylhexahydropyridazine-1-carbonyl)-7-methoxy-1-methyl-1H-benzo[d]imidazol-2-yl)-1-(cyclopropylmethyl)-1H-pyrrolo[2,3-b]pyridin-6-yl)ethyl)-2,6-difluorobenzamide], the IC50 under setting [1] was 129 nM. Regarding `COc1cc(C(=O)N2[C@H]3CC[C@@H]2[C@H](N)C3)cc2nc(-c3cc4ccc([C@H]5CCCN5C(=O)N5CCCC5)nc4n3CC3CC3)n(C)c12` [Example 248, ((R)-2-(2-(5-((1R,2R,4S)-2-amino-7-azabicyclo[2.2.1]heptane-7-carbonyl)-7-methoxy-1-methyl-1H-benzo[d]imidazol-2-yl)-1-(cyclopropylmethyl)-1H-pyrrolo[2,3-b]pyridin-6-yl)pyrrolidin-1-yl)(pyrrolidin-1-yl)methanone], the concentration for half-maximal inhibition (IC50) under setting [1] is 40.5 nM. Regarding `CCN(C(=O)OC)c1ccc2cc(-c3nc4cc(C(=O)N5CCC[C@@H](N)C5)cc(OC)c4n3C)n(CC3CC3)c2n1` [Example 111, (R)-methyl (2-(5-(3-aminopiperidine-1-carbonyl)-7-methoxy-1-methyl-1H-benzo[b]imidazol-2-yl)-1-(cyclopropylmethyl)-1H-pyrrolo [2,3-b]pyridin-6-yl) (ethyl)carbamate], the IC50 under setting [1] is 234 nM. As for `COc1cc(C(=O)N2C[C@H](N)CCN2C)cc2nc(-c3cc4ccc([C@@H](C)NC(=O)c5nccc(C)n5)nc4n3CC3CC3)n(C)c12` [Example 181, N-((R)-1-(2-(5-((R)-5-amino-2-methylhexahydropyridazine-1-carbonyl)-7-methoxy-1-methyl-1H-benzo[d]imidazol-2-yl)-1-(cyclopropylmethyl)-1H-pyrrolo[2,3-b]pyridin-6-yl)ethyl)-4-methylpyrimidine-2-carboxamide], under setting [1], the IC50 stood at 74.9 nM. On to `COc1cc(C(=O)N2[C@H]3CC[C@@H]2[C@H](N)C3)cc2nc(-c3cc4ccc([C@@H](C)NC(=O)c5cnn(C)c5)cc4n3CC3CC3)n(C)c12` [Example 135, N-((R)-1-(2-(5-((1R,2R,4S)-2-amino-7-azabicyclo[2.2.1]heptane-7-carbonyl)-7-methoxy-1-methyl-1H-benzo[d]imidazol-2-yl)-1-(cyclopropylmethyl)-1H-indol-6-yl)ethyl)-1-methyl-1H-pyrazole-4-carboxamide], for which the IC50 under setting [1] was 13 nM. For the compound `COc1cc(C(=O)N2CCC[C@@H](N)C2)cc2nc(-c3cc4ccc([C@@H](C)NC(C)=O)nc4n3CC3CC3)n(C3CC3)c12` [Example 132, N-((R)-1-(2-(5-((R)-3-aminopiperidine-1-carbonyl)-1-cyclopropyl-7-methoxy-1H-benzo[d]imidazol-2-yl)-1-(cyclopropylmethyl)-1H-pyrrolo[2,3-b]pyridin-6-yl)ethyl)acetamide], the IC50 under setting [1] stood at 70.7 nM. `C[C@@H](NC(=O)C12CC(C#N)(C1)C2)c1ccc2cc(-c3nc4cc(C(=O)N5C[C@H](N)[C@@H]6CC[C@H]5C6)cc(F)c4n3C3CC3)n(CC3CC3)c2n1` [Example 233, N-((R)-1-(2-(5-((1S,4R,5R)-4-amino-2-azabicyclo[3.2.1]octane-2-carbonyl)-1-cyclopropyl-7-fluoro-1H-benzo[d]imidazol-2-yl)-1-(cyclopropylmethyl)-1H-pyrrolo[2,3-b]pyridin-6-yl)ethyl)-3-cyanobicyclo[1.1.1]pentane-1-carboxamide]: the IC50 under setting [2] was determined as 78.2 nM. Consider `COc1cc(C(=O)N2CCC[C@@H](N)C2)cc2nc(-c3cc4ccc(N(C)S(C)(=O)=O)nc4n3CC3CC3)n(CC3CC3)c12` [Example 23, (R)-N-(2-(5-(3-aminopiperidine-1-carbonyl)-1-(cyclopropylmethyl)-7-methoxy-1H-benzo[d]imidazol-2-yl)-1-(cyclopropylmethyl)-1H-pyrrolo[2,3-b]pyridin-6-yl)-N-methylmethanesulfonamide], for which the IC50 under setting [1] worked out at 125 nM. In the case of `COc1cc(C(=O)N2CCC[C@@H](N)C2)cc2nc(-c3cc4ccc(NS(C)(=O)=O)cc4n3CC3CC3)n(C)c12` [Example 1, (R)-N-(2-(5-(3-aminopiperidine-1-carbonyl)-7-methoxy-1-methyl-1H-benzo[d]imidazol-2-yl)-1-(cyclopropylmethyl)-1H-indol-6-yl)methanesulfonamide], the 50% inhibitory concentration (IC50) under setting [1] is 1580 nM.

For the compound `COc1cc(C(=O)N2[C@H]3CC[C@@H]2[C@H](N)C3)cc2nc(-c3cc4ccc([C@@H](C)NC(=O)C56CC(F)(C5)C6)cc4n3CC3CC3)n(C)c12` [Example 133, N-((R)-1-(2-(5-((1R,2R,4S)-2-amino-7-azabicyclo[2.2.1]heptane-7-carbonyl)-7-methoxy-1-methyl-1H-benzo[d]imidazol-2-yl)-1-(cyclopropylmethyl)-1H-indol-6-yl)ethyl)-3-fluorobicyclo[1.1.1]pentane-1-carboxamide], the IC50 under setting [1] stood at 32.2 nM. In the case of `COc1cc(C(=O)N2C[C@H](N)[C@@H]3CC[C@H]2C3)cc2nc(-c3cc4ccc([C@@H](C)NC(=O)C5(C)CC(F)(F)C5)nc4n3CC3CC3)n(C)c12` [Example 328, N-((R)-1-(2-(5-((1S,4R,5R)-4-amino-2-azabicyclo[3.2.1]octane-2-carbonyl)-7-methoxy-1-methyl-1H-benzo[d]imidazol-2-yl)-1-(cyclopropylmethyl)-1H-pyrrolo[2,3-b]pyridin-6-yl)ethyl)-3,3-difluoro-1-methylcyclobutane-1-carboxamide], the IC50 under setting [2] turned out to be 101 nM.

On to `COc1cc(C(=O)N2CCC[C@@H](N)C2)cc2nc(-c3cc4ccc(N(C5CC5)S(C)(=O)=O)nc4n3CC3CC3)n(C)c12` [Example 17, (R)-N-(2-(5-(3-aminopiperidine-1-carbonyl)-7-methoxy-1-methyl-1H-benzo[d]imidazol-2-yl)-1-(cyclopropylmethyl)-1H-pyrrolo [2,3-b]pyridin-6-yl)-N-cyclopropylmethanesulfonamide], for which, under setting [1], the IC50 turned out to be 88.5 nM.
